Measurements taken from US8758743B2, “Compositions containing coenzyme Q10” (Taiyo Kagaku Co., Ltd., priority 2003, dated 2014).
Like-named read-outs stand apart in the source and are kept apart here.

Tests used:
[1] = Storage of powder products at 50° C. under light shielding (Test Example 1-1); type: physicochemical
Protocol: In addition, the powder products of Examples 1-6 and 1-7 and a coenzyme Q10 itself (manufactured by Kanegafuchi Kagaku Kogyo Kabushiki Kaisha) were used as test samples, and the storage states before the beginning of storage, and after storage at 50° C. for 4 weeks or 12 weeks passed under light shielding were confirmed.

[2] = Bioabsorbability Test 2 of coenzyme Q10 (Test Example 1-4); type: in vivo; details: male, SD, rat, plasma, po, 5 mg/kg; for concentration at 1 h: 1 hour after administration; for AUC: read-out: AUC1-24
Protocol: The bioabsorbability of a coenzyme Q10 was evaluated by administering each of the coenzyme Q10-containing composition of Example 1-2 and a coenzyme Q10 itself to a rat as a test sample, sampling blood over time, and measuring the coenzyme Q10 concentration in the plasma, and the bioabsorbability was compared among the test samples.
The feeding conditions were set in 2 ways; a case where rats were allowed to take the feed ad libitum (satiation), and a case where rats were made to fast since the early-evening of the previous day of the test, and where the rats were fed again after blood sampling of 8 hours after the administration of the test sample.
The solution of distilled water in Tests A and A′ was prepared by adding the coenzyme Q10-containing composition of Example 1-2 to distilled water and mixing the mixture. The suspension of a 0.5(w/v)% aqueous CMC—Na solution in Tests B and B′ was prepared by adding a coenzyme Q10 itself to a 0.5(w/v)% aqueous CMC-Na solution and subjecting the mixture to ultrasonication.
The conditions and the like for this test are listed hereinbelow. • Rat: SD line, 7-week old, male, n=4 • Dose: The test samples calculated as 5 mg of a coenzyme Q10 per 1 kg of the body weight of a rat were administered. • Amount of administered liquid: The suspension or the solution used in Tests A, A′, B, or B′ was administered in an amount of 5 mL per 1 kg of the body weight of a rat.
Method of administration, blood sampling, time of blood sampling, processing of blood and method of quantification were same as those in the above-mentioned Test Example 1-3.

Storage State ([1]; after 4 weeks): Melted | Storage State ([1]; after 12 weeks): Melted | concentration at 1 h ([2]; fasting): 30 ± 10 ng/mL | concentration at 2 h ([2]; fasting): 30 ± 10 ng/mL | concentration at 4 h ([2]; fasting): 30 ng/mL | concentration at 8 h ([2]; fasting): 30 ± 10 ng/mL | concentration at 24 h ([2]; fasting): 40 ± 110 ng/mL | AUC ([2]; fasting): 780 ± 300 ng·h/mL | concentration at 1 h ([2]; satiation): 120 ± 70 ng/mL | concentration at 2 h ([2]; satiation): 170 ± 110 ng/mL | concentration at 4 h ([2]; satiation): 260 ± 90 ng/mL | concentration at 8 h ([2]; satiation): 270 ± 90 ng/mL | concentration at 24 h ([2]; satiation): 110 ± 40 ng/mL | AUC ([2]; satiation): 4780 ± 1310 ng·h/mL
Compound: COC1=C(OC)C(=O)C(C/C=C(\C)CC/C=C(\C)CC/C=C(\C)CC/C=C(\C)CC/C=C(\C)CC/C=C(\C)CC/C=C(\C)CC/C=C(\C)CC/C=C(\C)CCC=C(C)C)=C(C)C1=O [Coenzyme Q10 Powder, coenzyme Q10]
